# Paper PMC9861386, “N-Heterocyclic Carbene-Iridium Complexes as Photosensitizers for In Vitro Photodynamic Therapy to Trigger Non-Apoptotic Cell Death in Cancer Cells” (Molecules, 2023)
# Read-outs that look alike come from different tables or passages of the source.
# Tests used:
# [1] = system: T24; assay: MTT cytotoxicity, 48 h; type: cell-based, human; conditions: for GI50: MTT; for SI (T24): NIH3T3 vs T24
# Procedure: (§1) The in vitro cytotoxicity of iridium(III) complexes 4a–4g was first evaluated against cancer cell lines PC-3 (human prostate) and T24 (human bladder) and the non-cancerous NIH-3T3 cell line (murine fibroblasts) using colorimetric MTT tests after 48 h of treatment. The dimeric iridium precursor [IrCl(ppy)2]2 was used as reference and the results are summarized in Table S1 (Supplementary Materials) in the supporting information file. […] The complexes were also evaluated for their cytotoxicity towards healthy NIH-3T3 cells, giving access to the selectivity index (SI). […] No linear correlation between lipophilicity and anti-cancer activity was found for the iridium(III) complexes 4a–4g. For the following biological studies, we focused on the C1 series.
# (§2) Table S1. Cytotoxic activity of iridium(III) NHC complexes 4a−4g expressed as GI50 (μM) values towards selected cancer and normal cell lines as determined by MTT assay (48 h).a Complex PC-3 T24 NIH3T3 SI (PC-3) SI (T24) […]
# (§3) a GI50 values correspond to the concentration of complexes causing 50 % inhibition of cell growth.
# (§4) Data were obtained from three independent experiments.
# (§5) The cytotoxic effects of the NHC precursors, the imidazolium salts, which represents the potential hydrolysis and/or degradation products of the complexes, have been published before [SI-1, SI-2]. […]
# [2] = system: PC-3; assay: MTT cytotoxicity, 48 h; type: cell-based, human; conditions: for GI50: MTT; for SI (PC-3): NIH3T3 vs PC-3
# Procedure: as §1, §2, §3, §4, §5
# [3] = system: A549 lung cancer cells; assay: MTT cell viability, 72 h, dark or 458 nm irradiation; type: cell-based, human; conditions: for GI50: 72 h, MTT; for PI A549: GI50 non-irradiated / GI50 irradiated; for SI vs MC3T3, A549 Blue / SI vs NIH, A549 Blue: blue light; for SI vs MC3T3, A549 Blue / SI vs MC3T3, A549 Dark: GI50 MC3T3 / GI50 A549; for SI vs NIH, A549 Blue / SI vs NIH, A549 Dark: GI50 NIH-3T3 / GI50 A549
# Procedure: (§6) For all biology experiments, the compounds were solubilized in DMSO to reach a final fixed concentration equal to 0.1% v/v to avoid cytotoxicity caused by DMSO [89]. The results are normalized to controls (0.1% v/v DMSO). Depending on the cell type, approximatively 1000 to 10,000 cells/cm^2 were seeded in 48-well plates for MTT, ATP and GSH assays and 60 mm Petri dishes for Western blots. Cells were allowed to attach overnight and then incubated for 4 h with the different complexes (in the dark), then irradiated for 10 min, followed by an incubation in the dark up to 72 h.
# (§7) Irradiation was conducted using an in-house device: a series of blue light LEDs selected according to the absorption spectra of the compounds at a 458 nm wavelength with an emitted power of 9.6 watts. The absorbed energy, or irradiance, was measured at 458 nm with a Thorlabs Optical Power Meter PM100A at 5 and 10 cm distance between the cell layer and the light source and expressed as mW/cm^2.
# (§8) A tetrazolium-based MTT reagent (3-(4,5-dimethylthiazol-2-yl)-2,5-diphenyltetrazolium bromide) was used to determine cell viability, as previously described. After 72 h of treatment at 37 °C and 5% CO2, cells were incubated with 25 μL MTT solution (5 mg/mL; Sigma-Aldrich) for 4 h. After solubilization with 500 μL of lysis buffer (DMSO), formazan was quantified by spectrophotometry with a microplate reader at 570 nm absorbance (ClarioSTAR, BMG LabTech, Champigny-sur-Marne, France). GI50 values corresponding to the concentration that caused 50% inhibition of cell proliferation were calculated from dose–response curves obtained by nonlinear regression analysis. All results were calculated from data obtained in at least three independent experiments.
# [4] = system: T24 bladder cancer cells; assay: as above; type: cell-based, human; conditions: for GI50: 72 h, MTT; for PI T24: GI50 non-irradiated / GI50 irradiated; for SI vs MC3T3, T24 Blue / SI vs NIH, T24 Blue: blue light; for SI vs MC3T3, T24 Blue / SI vs MC3T3, T24 Dark: GI50 MC3T3 / GI50 T24; for SI vs NIH, T24 Blue / SI vs NIH, T24 Dark: GI50 NIH-3T3 / GI50 T24
# Procedure: as §6, §7, §8
# [5] = system: MCF7/FasR breast cancer cells; assay: as above; type: cell-based, human; conditions: for GI50: 72 h, MTT; for PI MCF7: GI50 non-irradiated / GI50 irradiated; for SI vs MC3T3, MCF7 Blue / SI vs NIH, MCF7 Blue: blue light; for SI vs MC3T3, MCF7 Blue / SI vs MC3T3, MCF7 Dark: GI50 MC3T3 / GI50 MCF7; for SI vs NIH, MCF7 Blue / SI vs NIH, MCF7 Dark: GI50 NIH-3T3 / GI50 MCF7
# Procedure: as §6, §7, §8
# [6] = system: HeLa cervix cancer cells; assay: as above; type: cell-based, human; conditions: for GI50: 72 h, MTT; for PI HeLa: GI50 non-irradiated / GI50 irradiated; for SI vs MC3T3, HeLa Blue / SI vs NIH, HeLa Blue: blue light; for SI vs MC3T3, HeLa Blue / SI vs MC3T3, HeLa Dark: GI50 MC3T3 / GI50 HeLa; for SI vs NIH, HeLa Blue / SI vs NIH, HeLa Dark: GI50 NIH-3T3 / GI50 HeLa
# Procedure: as §6, §7, §8
# [7] = system: PC-3 prostate cancer cells; assay: as above; type: cell-based, human; conditions: for GI50: 72 h, MTT; for PI PC-3: GI50 non-irradiated / GI50 irradiated; for SI vs MC3T3, PC-3 Blue / SI vs NIH, PC-3 Blue: blue light; for SI vs MC3T3, PC-3 Blue / SI vs MC3T3, PC-3 Dark: GI50 MC3T3 / GI50 PC-3; for SI vs NIH, PC-3 Blue / SI vs NIH, PC-3 Dark: GI50 NIH-3T3 / GI50 PC-3
# Procedure: as §6, §7, §8
# [8] = system: panel of five cancer cell lines (T24, PC-3, MCF7, A549, HeLa); assay: MTT cell viability, 72 h, pooled over the cancer cell panel; type: cell-based, human; conditions: for Average SI vs MC3T3, Blue light: GI50 MC3T3 / GI50 of all irradiated cancer cell lines; for Average SI vs NIH, Blue light: GI50 NIH-3T3 / GI50 of all irradiated cancer cell lines
# Procedure: as §6, §7, §8
# [9] = system: MC3T3 osteoblasts; assay: MTT cell viability, 72 h, dark or 458 nm irradiation; type: cell-based, murine
# Procedure: as §6, §7, §8
# [10] = system: NIH-3T3 fibroblasts; assay: as above; type: cell-based, murine; conditions: for GI50: 72 h, MTT; for PI NIH-3T3: GI50 non-irradiated / GI50 irradiated
# Procedure: as §6, §7, §8
# [11] = system: NIH3T3; assay: MTT cytotoxicity, 48 h; type: cell-based, murine
# Procedure: as §1, §2, §3, §4, §5
# [12] = 458 nm irradiation 10 min, read-out: GI50 A549 Blue
# [13] = 458 nm irradiation 10 min, read-out: GI50 T24 Blue
# [14] = 458 nm irradiation 10 min, read-out: GI50 MCF7 Blue
# [15] = 458 nm irradiation 10 min, read-out: GI50 HeLa Blue
# [16] = 458 nm irradiation 10 min, read-out: GI50 PC-3 Blue
# [17] = 458 nm irradiation 10 min, read-out: GI50 MC3T3 Blue
# [18] = dark, read-out: GI50 MC3T3 Dark
# [19] = 458 nm irradiation 10 min, read-out: GI50 NIH-3T3 Blue
# [20] = dark, read-out: GI50 NIH-3T3 Dark
smiles,measurement,setting,value
CC(C)C[n+]1ccn2[c]1[Ir-3]13([c]4ccccc4-c4cccc[n+]41)([c]1ccccc1-c1cccc[n+]13)[c]1n(cc[n+]1CC(C)C)C2.F[P-](F)(F)(F)(F)F [Complex 4b],GI50,[1],380 nM
same,SI (T24),[1],9.2
same,GI50,[2],510 nM
same,SI (PC-3),[2],6.9
same,GI50,[3]; [12],84 nM
same,PI A549,[3],4.2
same,"SI vs MC3T3, A549 Blue",[3],8.4
same,"SI vs NIH, A549 Blue",[3],18.1
same,GI50,"[3]; dark, read-out: GI50 A549 Dark",354 nM
same,"SI vs MC3T3, A549 Dark",[3]; dark,2.8
same,"SI vs NIH, A549 Dark",[3]; dark,5.5
same,GI50,[4]; [13],90 nM
same,PI T24,[4],2.8
same,"SI vs MC3T3, T24 Blue",[4],7.7
same,"SI vs NIH, T24 Blue",[4],16.7
same,GI50,"[4]; dark, read-out: GI50 T24 Dark",259 nM
same,"SI vs MC3T3, T24 Dark",[4]; dark,3.8
same,"SI vs NIH, T24 Dark",[4]; dark,7.5
same,GI50,[5]; [14],53 nM
same,PI MCF7,[5],4.0
same,"SI vs MC3T3, MCF7 Blue",[5],13.3
same,"SI vs NIH, MCF7 Blue",[5],28.7
same,GI50,"[5]; dark, read-out: GI50 MCF7 Dark",211 nM
same,"SI vs MC3T3, MCF7 Dark",[5]; dark,4.6
same,"SI vs NIH, MCF7 Dark",[5]; dark,9.2
same,GI50,[6]; [15],294 nM
same,PI HeLa,[6],2.1
same,"SI vs MC3T3, HeLa Blue",[6],2.4
same,"SI vs NIH, HeLa Blue",[6],5.2
same,GI50,"[6]; dark, read-out: GI50 HeLa Dark",625 nM
same,"SI vs MC3T3, HeLa Dark",[6]; dark,1.6
same,"SI vs NIH, HeLa Dark",[6]; dark,3.1
same,GI50,[7]; [16],71 nM
same,PI PC-3,[7],3.6
same,"SI vs MC3T3, PC-3 Blue",[7],9.9
same,"SI vs NIH, PC-3 Blue",[7],21.4
same,GI50,"[7]; dark, read-out: GI50 PC-3 Dark",257 nM
same,"SI vs MC3T3, PC-3 Dark",[7]; dark,3.8
same,"SI vs NIH, PC-3 Dark",[7]; dark,7.6
same,"Average SI vs MC3T3, Blue light",[8],8.3
same,"Average SI vs NIH, Blue light",[8],18
same,GI50,[9]; [17],704 nM
same,GI50,[9]; [18],979 nM
same,GI50,[10]; [19],1520 nM
same,PI NIH-3T3,[10],1.3
same,GI50,[10]; [20],1950 nM
same,GI50,[11],3.5 µM
F[P-](F)(F)(F)(F)F.c1ccc(C[n+]2ccn3[c]2[Ir-3]24([c]5ccccc5-c5cccc[n+]52)([c]2ccccc2-c2cccc[n+]24)[c]2n(cc[n+]2Cc2ccccc2)C3)cc1 [Complex 4c],GI50,[1],430 nM
same,SI (T24),[1],16.5
same,GI50,[2],410 nM
same,SI (PC-3),[2],17.3
same,GI50,[3]; [12],171 nM
same,PI A549,[3],2.4
same,"SI vs MC3T3, A549 Blue",[3],7.8
same,"SI vs NIH, A549 Blue",[3],15.6
same,GI50,"[3]; dark, read-out: GI50 A549 Dark",407 nM
same,"SI vs MC3T3, A549 Dark",[3]; dark,2.9
same,"SI vs NIH, A549 Dark",[3]; dark,6.7
same,GI50,[4]; [13],91 nM
same,PI T24,[4],3.9
same,"SI vs MC3T3, T24 Blue",[4],14.6
same,"SI vs NIH, T24 Blue",[4],29.3
same,GI50,"[4]; dark, read-out: GI50 T24 Dark",358 nM
same,"SI vs MC3T3, T24 Dark",[4]; dark,3.2
same,"SI vs NIH, T24 Dark",[4]; dark,7.6
same,GI50,[5]; [14],61 nM
same,PI MCF7,[5],4.1
same,"SI vs MC3T3, MCF7 Blue",[5],21.8
same,"SI vs NIH, MCF7 Blue",[5],43.8
same,GI50,"[5]; dark, read-out: GI50 MCF7 Dark",248 nM
same,"SI vs MC3T3, MCF7 Dark",[5]; dark,4.7
same,"SI vs NIH, MCF7 Dark",[5]; dark,11.0
same,GI50,[6]; [15],275 nM
same,PI HeLa,[6],1.8
same,"SI vs MC3T3, HeLa Blue",[6],4.8
same,"SI vs NIH, HeLa Blue",[6],9.7
same,GI50,"[6]; dark, read-out: GI50 HeLa Dark",494 nM
same,"SI vs MC3T3, HeLa Dark",[6]; dark,2.3
same,"SI vs NIH, HeLa Dark",[6]; dark,5.5
same,GI50,[7]; [16],116 nM
same,PI PC-3,[7],2.9
same,"SI vs MC3T3, PC-3 Blue",[7],11.5
same,"SI vs NIH, PC-3 Blue",[7],23.0
same,GI50,"[7]; dark, read-out: GI50 PC-3 Dark",336 nM
same,"SI vs MC3T3, PC-3 Dark",[7]; dark,3.5
same,"SI vs NIH, PC-3 Dark",[7]; dark,8.1
same,"Average SI vs MC3T3, Blue light",[8],12.1
same,"Average SI vs NIH, Blue light",[8],24.3
same,GI50,[9]; [17],1330 nM
same,GI50,[9]; [18],1160 nM
same,GI50,[10]; [19],2670 nM
same,PI NIH-3T3,[10],1.0
same,GI50,[10]; [20],2730 nM
same,GI50,[11],7.1 µM
